The source of these data is patent publication US20080108611A1, “SUBSTITUTED THIENOPYRIMIDINE KINASE INHIBITORS” (priority 2006, published 2008).

T1 sequence (P00533 669-1210 limits assumed): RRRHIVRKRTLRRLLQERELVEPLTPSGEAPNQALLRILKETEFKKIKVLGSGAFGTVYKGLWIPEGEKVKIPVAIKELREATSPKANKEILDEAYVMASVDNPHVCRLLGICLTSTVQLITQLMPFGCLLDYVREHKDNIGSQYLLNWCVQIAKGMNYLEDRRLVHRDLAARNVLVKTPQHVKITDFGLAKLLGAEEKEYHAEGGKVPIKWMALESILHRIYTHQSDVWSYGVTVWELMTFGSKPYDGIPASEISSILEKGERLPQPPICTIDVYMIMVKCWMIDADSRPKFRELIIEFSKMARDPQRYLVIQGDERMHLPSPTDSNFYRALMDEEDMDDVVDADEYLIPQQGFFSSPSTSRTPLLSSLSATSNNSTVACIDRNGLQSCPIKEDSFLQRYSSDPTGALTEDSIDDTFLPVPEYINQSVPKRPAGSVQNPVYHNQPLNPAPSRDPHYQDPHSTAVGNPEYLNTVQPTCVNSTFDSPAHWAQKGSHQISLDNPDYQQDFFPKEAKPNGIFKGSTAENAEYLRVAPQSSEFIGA

This experiment concerns the target T1, EGFR (Homo sapiens, UniProt P00533).
T1 construct: The intracellular portion of EGFR started at nucleotide 2189 (corresponding to amino acid 667) and ended at the termination codon; made in house; host or cells: Sf9 insect cells (baculovirus)
Briefly: EGFR Kinase Assay. The format is biochemical. The settings on record: GST-EGFR intracellular portion, 5 μM ATP. The text has this:
The EGFR kinase used was a fusion of Glutathione-S-Transferase (GST) and a PCR amplified intracellular portion of EGFR (NM_005228). The intracellular portion of EGFR started at nucleotide 2189 (corresponding to amino acid 667) and ended at the termination codon. The portion was PCR amplified with primers that added the lambda attB sequences to each end, recombined into an entry vector, then into a GST destination vector (as described in Gateway Technologies Manual by Invitrogen Corporation, Carlsbad, Calif.).
The destination vector was recombined in the DH10BAC strain of bacteria to produce a bacmid. The bacmid was transfected into Sf 9 cells and the supernatant containing the baculovirus was collected. The GSTEGFR protein was purified using large cultures of Sf 9 cells infected with stock virus. After an appropriate period of time, the cells were collected and lysed. The GSTEGFR was then purified from the lysate on Glutathione-Sepharose columns (as described by Amersham Biosciences, Buckinghamshire, United Kingdom).
The EGFR substrate was prepared by biotinylating polyGluTyr (128 mg) (Sigma, St. Louis, Mo.) in a 1×PBS buffer incubated together with a 12-fold molar excess of Sulfo-NHS-LC-Biotin on ice for at least 2 hrs. The free biotin was separated from the biotinylated polyGluTyr on a gel filtration column.
A mixture of a 10× kinase buffer (500 mM Tris at pH 8.0, 100 mM Magnesium Chloride and 1 mM Sodium Vanadate), DTT (1 mM final from 500 mM stock), ATP (5 μM final from 10 mM stock), biotinylated polyGluTyr (10 μg/μL stock), γ-^33P ATP (10 μCi/μL stock) and water was added to each well (90 μL/well) of a Streptavidin Flashplate (Perkin Elmer, Wellesley, M A).
Test compound in 100% DMSO (2 μL) was added to the appropriate wells. Diluted GSTEGFR (1:300 dilution in 50 mM Tris at pH 8.0 and 0.1% bovine serum albumin) (10 μL) was added to the wells to initiate the reactions.
The plates were incubated at 30° C. for 1 hr with shaking. The reacted contents were removed and the plates were sequentially washed three times with a 1×PBS stop buffer (300 μL without Magnesium and Calcium) and 100 mM EDTA. After the final wash, the same stop buffer (200 μL) was added to the wells. The plates were then sealed and read on the TopCount scintillation counter.
Test compounds were assayed in triplicate at 16 concentrations at half-log dilutions starting at 200 uM. A maximum and minimum signal for the assay was determined on each plate. The percent inhibition of a test compound was calculated according to the formula
For a series of test concentrations, the IC50 was derived by graphing percent inhibition against the log of the concentrations tested for a given compound. For those compounds without an IC50, the percent inhibition results are shown at a test concentration of 2 μM.
Broadly, the IC50 is the point on the concentration scale where inhibition reaches its midpoint. High values mean weaker potency, low ones greater potency. As for `COc1ccc(NC(=O)c2sc3ncnc(Nc4ccc(F)c(Cl)c4)c3c2N)cc1` [Cpd 1, 5-amino-4-(3-chloro-4-fluoro-phenylamino)-thieno[2,3-d]pyrimidine-6-carboxylic acid (4-methoxy-phenyl)-amide], the IC50 is 0.239 nM. The figure for `Nc1c(C(=O)Nc2ccc(CN3CCOCC3)cc2)sc2ncnc(Nc3ccc(F)c(Cl)c3)c12` [Cpd 2, 5-amino-4-(3-chloro-4-fluoro-phenylamino)-thieno[2,3-d]pyrimidine-6-carboxylic acid (4-morpholin-4-ylmethyl-phenyl)-amide] is 0.086 nM.

In turn, `COc1ccc(NC(=O)c2sc3ncnc(Nc4ccc(F)c(Cl)c4)c3c2N)cc1OC` [Cpd 3, 5-amino-4-(3-chloro-4-fluoro-phenylamino)-thieno[2,3-d]pyrimidine-6-carboxylic acid (3,4-dimethoxy-phenyl)-amide] yielded an IC50 of 0.109 nM. The IC50 values of the last two compounds are within 1.5-fold of each other.

As for `Nc1c(C(=O)NCCN2CCOCC2)sc2ncnc(Nc3ccc(F)c(Cl)c3)c12` [Cpd 4, 5-amino-4-(3-chloro-4-fluoro-phenylamino)-thieno[2,3-d]pyrimidine-6-carboxylic acid (2-morpholin-4-yl-ethyl)-amide], the IC50 worked out at 0.606 nM. The same measure for `CN(C)CCCNS(=O)(=O)c1ccc(NC(=O)c2sc3ncnc(Nc4ccc(F)c(Cl)c4)c3c2N)cc1` [Cpd 5, 5-amino-4-(3-chloro-4-fluoro-phenylamino)-thieno[2,3-d]pyrimidine-6-carboxylic acid [4-(3-dimethylamino-propylsulfamoyl)-phenyl]-amide]: 0.043 nM; for `Nc1c(C(=O)Nc2ccc(Oc3ccccc3)cc2)sc2ncnc(Nc3ccc(F)c(Cl)c3)c12` [Cpd 6, 5-amino-4-(3-chloro-4-fluoro-phenylamino)-thieno[2,3-d]pyrimidine-6-carboxylic acid (4-phenoxy-phenyl)-amide]: 0.741 nM. The figure for `Nc1c(C(=O)Nc2ccc(OC(F)(F)F)cc2)sc2ncnc(Nc3ccc(F)c(Cl)c3)c12` [Cpd 7, 5-amino-4-(3-chloro-4-fluoro-phenylamino)-thieno[2,3-d]pyrimidine-6-carboxylic acid (4-trifluoromethoxy-phenyl)-amide] is 0.598 nM. The same measure for `CC(C)Oc1ccc(NC(=O)c2sc3ncnc(Nc4ccc(F)c(Cl)c4)c3c2N)cc1` [Cpd 8, 5-amino-4-(3-chloro-4-fluoro-phenylamino)-thieno[2,3-d]pyrimidine-6-carboxylic acid (4-isopropoxy-phenyl)-amide]: 0.14 nM; for `COc1ccc(NC(=O)c2sc3ncnc(Nc4ccc(F)c(Cl)c4)c3c2N)cn1` [Cpd 9, 5-amino-4-(3-chloro-4-fluoro-phenylamino)-thieno[2,3-d]pyrimidine-6-carboxylic acid (6-methoxy-pyridin-3-yl)-amide]: 0.147 nM. Compound `Nc1c(C(=O)Nc2ccc(N3CCOCC3)cc2)sc2ncnc(Nc3ccc(F)c(Cl)c3)c12` [Cpd 10, 5-amino-4-(3-chloro-4-fluoro-phenylamino)-thieno[2,3-d]pyrimidine-6-carboxylic acid (4-morpholin-4-yl-phenyl)-amide] came in with an IC50 of 0.196 nM. This IC50 and that of the compound before are within 1.5-fold of each other. The figure for `COc1ccc(CNC(=O)c2sc3ncnc(Nc4ccc(F)c(Cl)c4)c3c2N)cc1OC` [Cpd 11, 5-amino-4-(3-chloro-4-fluoro-phenylamino)-thieno[2,3-d]pyrimidine-6-carboxylic acid 3,4-dimethoxy-benzylamide] is 0.177 nM; for `COc1ccc(CCNC(=O)c2sc3ncnc(Nc4ccc(F)c(Cl)c4)c3c2N)cc1OC` [Cpd 12, 5-amino-4-(3-chloro-4-fluoro-phenylamino)-thieno[2,3-d]pyrimidine-6-carboxylic acid [2-(3,4-dimethoxy-phenyl)-ethyl]-amide] it is 0.22 nM; for `Nc1c(C(=O)Nc2ccc(CN3CCCCC3)cc2)sc2ncnc(Nc3ccc(F)c(Cl)c3)c12` [Cpd 13, 5-amino-4-(3-chloro-4-fluoro-phenylamino)-thieno[2,3-d]pyrimidine-6-carboxylic acid (4-piperidin-1-ylmethyl-phenyl)-amide] it is 0.053 nM. As to `CN(C)Cc1ccc(NC(=O)c2sc3ncnc(Nc4ccc(F)c(Cl)c4)c3c2N)cc1` [Cpd 14, 5-amino-4-(3-chloro-4-fluoro-phenylamino)-thieno[2,3-d]pyrimidine-6-carboxylic acid (4-dimethylaminomethyl-phenyl)-amide], inhibition was half-maximal at 0.034 nM (IC50). This IC50 lies about 1.6-fold lower than the previous one. Consider `CN(CCc1ccc(NC(=O)c2sc3ncnc(Nc4ccc(F)c(Cl)c4)c3c2N)cc1)C1CCOCC1` [Cpd 15, 5-amino-4-(3-chloro-4-fluoro-phenylamino)-thieno[2,3-d]pyrimidine-6-carboxylic acid (4-{2-[methyl-(tetrahydro-pyran-4-yl)-amino]-ethyl}-phenyl)-amide], for which the IC50 is 0.064 nM. The same measure for `CN(Cc1ccc(NC(=O)c2sc3ncnc(Nc4ccc(F)c(Cl)c4)c3c2N)cc1)C[C@H]1CCCO1` [Cpd 16, 5-amino-4-(3-chloro-4-fluoro-phenylamino)-thieno[2,3-d]pyrimidine-6-carboxylic acid [4-({methyl-[(2R)-tetrahydro-furan-2-ylmethyl]-amino}-methyl)-phenyl]-amide]: 0.035 nM. The same measure for `CN(Cc1ccc(NC(=O)c2sc3ncnc(Nc4ccc(F)c(Cl)c4)c3c2N)cc1)C[C@@H]1CCCO1` [Cpd 17, 5-amino-4-(3-chloro-4-fluoro-phenylamino)-thieno[2,3-d]pyrimidine-6-carboxylic acid [4-({methyl-[(2S)-tetrahydro-furan-2-ylmethyl]-amino}-methyl)-phenyl]-amide]: 0.062 nM; for `CN1CCN(Cc2ccc(NC(=O)c3sc4ncnc(Nc5ccc(F)c(Cl)c5)c4c3N)cc2)CC1` [Cpd 18, 5-amino-4-(3-chloro-4-fluoro-phenylamino)-thieno[2,3-d]pyrimidine-6-carboxylic acid [4-(4-methyl-piperazin-1-ylmethyl)-phenyl]-amide]: 0.067 nM.
